Assay results from patent publication US11021481B2, “Substituted isoindolin-1-ones and 2,3-dihydro-1h-pyrrolo[3,4-c]pyridin-1-ones as HPK1 antagonists” (Nimbus Saturn, Inc., priority 2019, dated 2021).

biological target: HPK1 (Homo sapiens (Human), UniProt Q92918); test: HPK1 biochemical enzyme assay (microfluidic mobility shift assay); details: 1.5 nM HPK1, ATP 1 mM final, 30 min preincubation, 60 min at RT, Caliper EZ Reader; read-out: HPK1 1000UMATP caliper IC50
In short: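 Ten-point compound titrations (top 3 μM final) preincubated 30 min with HPK1 and substrate, then reaction started with 1 mM ATP and 1 μM substrate, 5 mM MgCl2. After 60 min at RT, reaction terminated and product measured by microfluidic mobility shift.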

Chain of HPK1 (Q92918 whole entry): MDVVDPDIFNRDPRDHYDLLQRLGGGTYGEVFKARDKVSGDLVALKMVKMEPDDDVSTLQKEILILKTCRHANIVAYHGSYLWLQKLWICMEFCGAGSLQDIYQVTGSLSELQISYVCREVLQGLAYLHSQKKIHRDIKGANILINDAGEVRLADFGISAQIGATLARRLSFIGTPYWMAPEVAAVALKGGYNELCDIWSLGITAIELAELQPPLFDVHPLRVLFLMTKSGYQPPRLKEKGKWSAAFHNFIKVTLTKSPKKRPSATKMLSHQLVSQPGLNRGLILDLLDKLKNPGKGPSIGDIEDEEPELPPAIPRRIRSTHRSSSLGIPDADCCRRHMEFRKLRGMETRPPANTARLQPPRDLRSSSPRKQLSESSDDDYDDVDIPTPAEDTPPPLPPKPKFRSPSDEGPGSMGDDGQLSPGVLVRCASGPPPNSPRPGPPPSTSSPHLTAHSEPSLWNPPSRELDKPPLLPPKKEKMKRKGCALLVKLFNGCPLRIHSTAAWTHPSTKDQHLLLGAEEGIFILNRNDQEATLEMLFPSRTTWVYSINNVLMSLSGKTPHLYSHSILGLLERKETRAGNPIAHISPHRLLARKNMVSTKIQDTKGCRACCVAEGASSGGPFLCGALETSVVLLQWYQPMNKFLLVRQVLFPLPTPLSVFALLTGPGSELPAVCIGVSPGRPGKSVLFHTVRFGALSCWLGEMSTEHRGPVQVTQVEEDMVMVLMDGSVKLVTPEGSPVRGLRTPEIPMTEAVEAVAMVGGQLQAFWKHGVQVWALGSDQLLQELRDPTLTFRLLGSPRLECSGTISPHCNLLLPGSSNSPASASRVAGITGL

IC50 [nM]	Structure (SMILES)
< 100	O=C1NCc2c(-c3cnc4cc(F)ccn34)ccc(Nc3ccc([C@@H]4CCOC4)c(CN4CC[C@H](F)C4)n3)c21 (stereo in doubt) [I-736]
< 100	CN(C)Cc1nc(Nc2ccc(-c3cnc4cc(C(F)F)ccn34)c3c2C(=O)NC3)ccc1C1CCOC1 (stereo in doubt) [I-752, (S)-4-(7-(difluoromethyl)-imidazo[1,2-a]pyridin-3-yl)-7-((6-((dimethylamino)-methyl)-5-(tetrahydrofuran-3-yl)pyridin-2-yl)amino)isoin-dolin-1-one]
< 100	CN(C)Cc1nc(Nc2ccc(-c3cnc4cc(C(F)F)ccn34)c3c2C(=O)NC3)ccc1C1CCOC1 (stereo in doubt) [I-753, (R)-4-(7-(difluoromethyl)-imidazo[1,2-a]pyridin-3-yl)-7-((6-((dimethylamino)-methyl)-5-(tetrahydrofuran-3-yl)pyridin-2-yl)amino)isoin-dolin-1-one]
< 100	CN(Cc1nc(Nc2ccc(-c3cnc4cc(F)ccn34)c3c2C(=O)NC3)ccc1C1CCOC1)CC(F)(F)F (stereo in doubt) [I-754, (S)-4-(7-fluoroimidazo [1,2-a]pyridin-3-yl)-7-((6-((methyl(2,2.2-trifluoroethyl)amino)methyl)-5-(tetrahydrofuran-3-yl)pyridin-2-yl)amino)isoin-dolin-1-one]
< 100	CN(Cc1nc(Nc2ccc(-c3cnc4cc(F)ccn34)c3c2C(=O)NC3)ccc1C1CCOC1)CC(F)(F)F (stereo in doubt) [I-765, (R)-4-(7-fluoroimidazo [1,2-a]pyridin-3-yl)-7-((6-((methyl(2,2,2 trifluoroethyl)amino)methyl)-5-(tetrahydrofuran-3-yl)pyridin-2-yl)amino)isoin-dolin-1-one]
< 100	O=C1NCc2c(-c3cnc4cc(F)ccn34)ccc(Nc3ccc(C4CCOC4)c(N4CCNCC4)n3)c21 (stereo in doubt) [I-772, (S)-4-(7-fluoroimidazo [1,2-a]pyridin-3-yl)-7-((6-(piperazin-1-yl)-5-(tetrahydrofuran-3-yl)pyridin-2-yl)amino)isoin-dolin-1-one]
100 to 1000	O=C1NCc2c(-c3cnc4cc(F)ccn34)ccc(Nc3ccc(C4CCOC4)c(N4CCNCC4)n3)c21 (stereo in doubt) [I-773, (R)-4-(7-fluoroimidazo [1,2-a]pyridin-3-yl)-7-((6-(piperazin-1-yl)-5-(tetrahydrofuran-3-yl)pyridin-2-yl)amino)isoin-dolin-1-one]
< 100	CN(C)C1CN(c2nc(Nc3ccc(-c4cnc5cc(F)ccn45)c4c3C(=O)NC4)ccc2C2CCOC2)C1 (stereo in doubt) [I-786, (S)-7-((6-(3-(dimctliylami-no)azetidin-1-yl)-5-(tetrahydrofur-an-3-yl)pyridin-2-yl)amino)-4-(7-fluoroimidazo [1,2-a]pyridin-3-yl)isoindolin-1-one]
< 100	CN(C)C1CN(c2nc(Nc3ccc(-c4cnc5cc(F)ccn45)c4c3C(=O)NC4)ccc2C2CCOC2)C1 (stereo in doubt) [I-787, (R)-7-((6-(3-(dimethylami-no)azetidin-1-yl)-5-(tetrahydrofuran-3-yl)pyridin-2-yl)amino)-4-(7-fluoroimidazo [1,2-a]pyridin-3-yl)isoindolin-1-one]
< 100	CO[C@H]1CCN(Cc2nc(Nc3ccc(-c4cnc5cc(F)ccn45)c4c3C(=O)NC4)ccc2[C@H]2CCOC2)C1 (stereo in doubt) [I-789]
< 100	CN(C)Cc1nc(Nc2ccc(-c3cnc4cc(F)ccn34)c3c2C(=O)NC3)cnc1C1CCOC1 (stereo in doubt) [I-799, (S)-7-((6-((dimethylamino)-methyl)-5-(tetrahydrofu-ran-3-yl)pyrazin-2-yl)amino)-4-(7-fluoroimidazo [1,2-a]pyridin-3-yl)isoindolm-1-one]
< 100	CN(C)CCc1nc(Nc2cnc(-c3ccnc4c3ccn4C)c3c2C(=O)NC3)ccc1C1CCOC1 (stereo in doubt) [I-807, (R)-7-((6-(2-(dimethylami-no)ethyl)-5-(tetrahydrofuran-3-yl)pyridin-2-yl)amino)-3-(1-methyl-1H-pyrrolo[2,3-b)pyridin-4-yl)-2,3-dihydro-1H-pyrrolo[3,4-c]pyridin-1-one]
< 100	CN(C)CCc1nc(Nc2cnc(-c3ccnc4c3ccn4C)c3c2C(=O)NC3)ccc1C1CCOC1 (stereo in doubt) [I-808, (S)-7-((6-(2-(dimothylami-no)ethyl)-5-(tetrahydrofuran-3-yl)pyridin-2-yl)amino)-4-(1-methyl-1H-pyrrolo[2,3-b]pyridin-4-yl)-2,3-dihydro-1H-pyrrolo[3,4-c]pyridin-1-one]
100 to 1000	O=C1NCc2c(-c3c[nH]c4ccccc34)ncc(Nc3ccc(N4CCNCC4)cn3)c21 [I-1, 4-(1H-indol-3-yl)-7-[(5-piperazin-1-yl-2-pyridyl)amino]-2,3-dihydropyrrolo [3,4-c]pyridin-1-one]
100 to 1000	CN1CCN(c2ccc(Nc3cnc(-c4c[nH]c5ccccc45)c4c3C(=O)NC4)nc2)CC1 [I-2, 4-(1H-indol-3-yl)-7-[[5-(4-methylpiperazin-1-yl)-2-pyridyl]amino]-2,3-dihydropyrrolo [3,4-c]pyridin-1-one]
100 to 1000	O=C1NCc2c(-c3c[nH]c4ccccc34)ncc(Nc3ccc(N4CCOCC4)cn3)c21 [I-3, 4-(1H-indo1-3-yl)-7-[(5-morpholino-2-pyridyl)amino]-2,3-dihydropyrrolo [3,4-c] pyridin-1-one]
100 to 1000	COc1ccc2c(-c3ncc(Nc4ccc(N5CCN(C)CC5)cn4)c4c3CNC4=O)c[nH]c2c1 [I-4, 4-(6-methoxy-1H-indol-3-yl)-7-[[5-(4-methylpiperazin-1-yl)-2-pyridyl]amino]-2,3-dihydropyrrolo [3,4-c]pyridin-1-one]
100 to 1000	Cc1cccc2c(-c3ncc(Nc4ccc(N5CCN(C)CC5)cn4)c4c3CNC4=O)c[nH]c12 [I-5, 4-(7-methyl-1H-indol-3-yl)-7-[[5-(4-methylpiperazin-1-yl)-2-pyridyl]amino]-2,3-dihydropyrrolo [3,4-c]pyridin-1-one]
< 100	CN1CCN(c2ccc(Nc3cnc(-c4c[nH]c5ncccc45)c4c3C(=O)NC4)nc2)CC1 [I-6, 7-((5-(4-Methylpiperazin-1-yl)pyridin-2-yl)amino)-4-(1H-pyrrolo[2,3-b]pyridin-3-yl)-2,3-dihydro-1H-pyrrolo[3,4-c]pyridin-1-one]
100 to 1000	COc1cccc2c(-c3ncc(Nc4ccc(N5CCN(C)CC5)cn4)c4c3CNC4=O)c[nH]c12 [I-7, 4-(7-methoxy-1H-indol-3-yl-)-7-[[5-(4-methylpiperazin-1-yl)-2-pyridyl]amino]-2,3-dihydropyrrolo [3,4-c]pyridin-1-one]
100 to 1000	Cc1ccc2c(-c3ncc(Nc4ccc(N5CCN(C)CC5)cn4)c4c3CNC4=O)c[nH]c2c1 [I-8, 4-(6-methyl-1H-indol-3-yl)-7-[[5-(4-methylpiperazin-1-yl)-2-pyridyl]amino]-2,3-dihydropyrrolo [3,4-c]pyridin-1-one]
100 to 1000	COc1ccc2[nH]cc(-c3ncc(Nc4ccc(N5CCN(C)CC5)cn4)c4c3CNC4=O)c2c1 [I-9, 4-(5-methoxy-1H-indol-3-yl)-7-[[5-(4-methylpiperazin-1-yl)-2-pyridyl]amino]-2,3-dihydropyrrolo [3,4-c]pyridin-1-one]
> 1000	O=C1NCc2c(-c3c[nH]c4ccccc34)ncc(Nc3ccc(N4CC5CCC(C4)O5)cn3)c21 [I-10, 4-(1H-indol-3-yl)-7-[[5-(8-oxa-3-azabicyclo [3.2.1]octan-3-yl)-2-pyridyl]amino]-2,3-dihydropyrrolo [3,4-c]pyridin-1-one]
100 to 1000	Cc1[nH]c2ccccc2c1-c1ncc(Nc2ccc(N3CCN(C)CC3)cn2)c2c1CNC2=O [I-11, 4-(2-methyl-1H-indol-3-yl)-7-[[5-(4-methylpiperazin-1-yl)-2-pyridyl]amino]-2,3-dihydropyrrolo [3,4-c]pyridin-1-one]
> 1000	O=C1NCc2c(-c3c[nH]c4ccccc34)ncc(Nc3ccc(N4CCC(F)(F)CC4)cn3)c21 [I-12, 7-[[5-(4,4-difluoro-1-piperidyl)-2-pyridyl]amino]-4-(1H-indol-3-yl)-2,3-dihydropyrrolo [3,4-c]pyridin-1-one]
100 to 1000	CN1CCN(c2ccc(Nc3cnc(-c4c[nH]c5ccncc45)c4c3C(=O)NC4)nc2)CC1 [I-13, 7-[[5-(4-methylpiperazin-1-yl)-2-pyridyl]amino]-4-(1H-pyrrolo[3,2-c]pyridin-3-yl)-2,3-dihydropyrrolo [3,4-c]pyridin-1-one]
> 1000	CN1CCN(c2ccc(Nc3cnc(-c4cn(C)c5ncccc45)c4c3C(=O)NC4)nc2)CC1 [I-14, 7-[[5-(4-methylpiperazin-1-yl)-2-pyridyl]amino]-4-(1-methylpyrrolo [2,3-b]pyridin-3-yl)-2,3-dihydropyrrolo [3,4-c]pyridin-1-one]
100 to 1000	Cc1[nH]c2ncccc2c1-c1ncc(Nc2ccc(N3CCN(C)CC3)cn2)c2c1CNC2=O [I-15]

Structure (SMILES)	IC50 [nM]
O=C1NCc2c(-c3cnc4cc(F)ccn34)ccc(Nc3ccc([C@H]4CCOC4)c(CN4CC[C@H](F)C4)n3)c21 (stereo in doubt) [I-735, 4-(7-fluoroimidazo [1,2-a]pyridin-3-yl)-7-((6-(((S)-3-fluoropyrrol-idin-1-yl)methyl)-5-((S)-tetrahydrofuran-3-yl)pyridin-2-yl)amino)isoin-dolin-1-one]	< 100
O=C1NCc2c(-c3cnc4cc(F)ccn34)ccc(Nc3ccc([C@H]4CCOC4)c(CN4CC[C@@H](F)C4)n3)c21 (stereo in doubt) [I-741, 4-(7-fluoroimidazo [1,2-a]pyridin-3-yl)-7-((6-(((R)-3-fluoropyrrol-idin-1-yl)methyl)-5-((S)-tetrahydrofur-an-3-yl)pyridin-2-yl)amino)isoin-dolin-1-one]	< 100
O=C1NCc2c(-c3cnc4cc(F)ccn34)ccc(Nc3ccc([C@@H]4CCOC4)c(CN4CC[C@@H](F)C4)n3)c21 (stereo in doubt) [I-742]	< 100
